Test results taken from patent US20260200849A1, “CATIONIC LIPIDS AND PREPARATION METHOD THEREOF” (RiboX Therapeutics HK Limited, priority 2024, published 2026).

Columns and labels:
[1] = LNP size and polydispersity index (PDI) by dynamic light scattering (Zetasizer); format: physicochemical; details: for Size (nm): Formulation No. 001 (Ionizable lipid:DSPC:cholesterol:DMG-PEG2000 = 50:10:38.5:1.5, N/P 6), RNA No. 331; for PDI: Formulation No. 001, RNA No. 331
Procedure: (§1) The LNP size and polydispersity index (PDI), determined by dynamic light scattering (DLS), and zeta potential were measured by a Zetasizer machine (Malvern). RNA concentration and encapsulation efficacy (EE %) were analyzed by the Quant-IT Ribogreen kit by calculating the percentage encapsulation at 100%—(RNA-LNPs/RNA-LNPs with Triton X-100).

[2] = RNA encapsulation efficacy (EE %) by Quant-IT Ribogreen kit; format: physicochemical; details: LNP, Formulation No. 001, RNA No. 331
Procedure: as §1

[3] = test system: Hep G2 cells; test: In vitro expression: luciferase activity in Hep G2 cells transfected with RNA-LNPs; format: cell-based; details: Formulation No. 001, RNA No. 331 (firefly-luciferase), 100 ng/mL RNA-LNPs, 72 hours post transfection
Procedure: 2E5 Hep G2 cells were transfected with 100 ng/mL of RNA-LNPs encoding for firefly-luciferase. At 72 hours post transfection, the cells were washed and lysed. The luciferase expression (2-well repeat) was determined in the cell lysates with the luciferase assay reagent kit (Promega), according to the kit protocol, luciferase activity was measured by a luminometer.

[4] = test system: Hep G2 cells; test: In vitro toxicity: Hep G2 cell viability by CellTiter-Glo; format: cell-based; details: Formulation No. 001, RNA No. 331, 1 μg/mL RNA-LNPs, 72 hours post transfection, cell only = 100%
Procedure: 2E5 Hep G2 cells were transfected with 1 μg/mL RNA-LNPs. At 72 hours post transfection, cell viability (2-well repeat) was determined with the CellTiter-Glo® reagent kit, according to the kit protocol, measured by a luminometer. Cell only as control (100%).
The cell viability was calculated according to the following formula: […]

[5] = test system: Balb/c mice; test: In vivo expression by IV, 0.05 mg/kg luciferase RNA-LNPs, IVIS luminescence; details: Formulation No. 001, RNA No. 331; female Balb/c mice, 0.05 mg*kg−1 intravenous, 24-hours post injection
Procedure: 7-8 week old, female Balb/c mice (N=3) were injected with 0.05 mg*kg−1 of RNA-LNPs encoding for firefly-luciferase by intravenous injection. At 24- and 72-hours post injection, animals were intraperitoneally injected with 15 mg/mi of Luciferin substrate and whole-body luminescence was determined by a bioluminescent in vivo imaging system (IVIS).
7-8 week old, female Balb/c mice (N=3) were injected with 0.05 mg*kg−1 of RNA-LNPs encoding for firefly-luciferase by intravenous injection. At 24-hours post injection, animals were intraperitoneally injected with 15 mg/ml of Luciferin substrate and whole-body/liver/spleen luminescence was determined by a bioluminescent in vivo imaging system (IVIS).

[6] = test system: MCP-1; test: In vivo tolerability by IV: serum MCP-1 by Luminex; set-up: species or system C57BL/6J mice; details: Formulation No. 001, RNA No. 331, male C57BL/6J mice, 1.0 mg*kg/1 intravenous; for MCP-1 at 2 h: 2 hours post injection; for MCP-1 at 24 h: 24 hours post injection
Procedure: (§2) 6-8 week old, male C57BL/6J mice (N=3) were injected with 1.0 mg*kg/1 of RNA-LNPs encoding for firefly-luciferase by intravenous injection. At 2- and 24-hours post injection, about 40 μL blood was harvested and immediately added to the procoagulant containing tube. Stand for 30 min at room temperature and then centrifuged at 2500 g×10 min to obtain serum. About 15 μL serum samples were aliquoted for cytokine (MCP-1 and IL-6) detection by Luminex (ProcartaPlex Mouse 2-plex, Thermo). PBS group as negative control.
(§3) 6-8 week old, male C57BL/6J mice (N=3) were injected with 1.0 mg*kg−1 of RNA-LNPs encoding for firefly-luciferase by intravenous injection. At 2- and 24-hours post injection, about 40 μL blood was harvested and immediately added to the procoagulant containing tube. Stand for 30 min at room temperature and then centrifuged at 2500 g×10 min to obtain serum. About 15 μL serum samples were aliquoted for cytokine (MCP-1 and IL-6) detection by Luminex (ProcartaPlex Mouse 2-plex, Thermo). PBS group as negative control.

[7] = test system: IL-6; test: In vivo tolerability by IV: serum IL-6 by Luminex; set-up: species or system C57BL/6J mice; details: Formulation No. 001, RNA No. 331, male C57BL/6J mice, 1.0 mg*kg/1 intravenous; for IL-6 at 2 h: 2 hours post injection; for IL-6 at 24 h: 24 hours post injection
Procedure: as §2, §3

[8] = test system: C57BL/6J mice; test: In vivo expression by IV, 1.0 mg/kg luciferase RNA-LNPs, whole-body and organ IVIS luminescence; details: Formulation No. 001, RNA No. 331; male C57BL/6J mice, 1.0 mg*kg−1 intravenous, 24-hours post injection
Procedure: 6-8 week old, male C57BL/6J mice (N=3) were injected with 1.0 mg*kg−1 of RNA-LNPs encoding for firefly-luciferase by intravenous injection. At 24-hours post injection, animals were intraperitoneally injected with 15 mg/ml of Luciferin substrate and whole-body/liver/spleen/kidney/small intestine/large intestine luminescence were determined by a bioluminescent in vivo imaging system (IVIS).
6-8 week old, male C57BL/6J mice (N=3) were injected with 1.0 mg*kg−1 of RNA-LNPs encoding for firefly-luciferase by intravenous injection. At 24-hours post injection, animals were intraperitoneally injected with 15 mg/nil of Luciferin substrate and whole-body/liver/spleen/kidney/small intestine/large intestine luminescence were determined by a bioluminescent in vivo imaging system (IVIS).

SMILES	Size (nm) [1] [nm]	PDI [1]	EE (%) [2] [%]	In vitro Expression (Mean) [3]	In vitro cell viability (%) (Mean) [4]	Liver (p/s) (Mean) [5]	Spleen (p/s) (Mean) [5]	Whole body (p/s) (Mean) [5]	MCP-1 at 2 h [6] [pg/mL]	MCP-1 at 24 h [6] [pg/mL]	IL-6 at 2 h [7] [pg/mL]	IL-6 at 24 h [7] [pg/mL]	Kidney (p/s) [8] [p/s]	Large intestine (p/s) [8] [p/s]	Liver (p/s) [8] [p/s]	Small intestine (p/s) [8] [p/s]	Spleen (p/s) [8] [p/s]	Whole body (p/s) [8] [p/s]
CCCCCCCC/C=C\CCCCCCCC(=O)NC(COC(=O)NCCN1CCCCC1)C(=O)OCCCCCCCC(=O)OC(CCCCCCCC)CCCCCCCC (stereo not drawn) [Lipid 736]	66.29	0.01	91.61	7.05E+05	73.49	2.87E+08	1.39E+08	2.08E+09	3830	260	442	3.03	5.22E+07	1.78E+08	2.87E+09	6.48E+08	3.38E+08	5.28E+09
CCCCCCCC/C=C\CCCCCCCC(=O)NC(COC(=O)NCCN1CCCCC1)C(=O)OCCCCCC(=O)OCC(CCCCCCCC)CCCCCCCCCC (stereo not drawn) [Lipid 792]	64.18	0.02	92.11	8.10E+05	81.74	2.90E+08	1.01E+08	2.18E+09	1620	216	25.9	6.86	3.20E+07	8.04E+07	2.74E+09	5.01E+08	3.20E+08	2.76E+09
CCCCC/C=C\C/C=C\CCCCCCCCOC(=O)NC(COC(=O)NCCN1CCCCCC1)C(=O)OCCCCCCCC(=O)OC(CCCCCCCC)CCCCCCCC (stereo not drawn) [Lipid 858]	63.50	0.04	91.60	2.88E+05	92.44	3.71E+08	6.61E+07	8.74E+08	1360	111	23	3.13	2.31E+07	1.58E+08	8.64E+08	6.45E+08	2.33E+08	1.92E+09
CCCCC/C=C\C/C=C\CCCCCCCCOC(=O)NC(COC(=O)NCCN1CCCCCC1)C(=O)OCCCCCCCCOC(=O)C(CCCCCC)CCCCCCCC (stereo not drawn) [Lipid 881]	61.73	0.02	90.26	4.02E+05	86.94	2.25E+08	6.14E+07	1.18E+09	1190	253	12.8	6.69	4.26E+07	1.30E+08	1.65E+09	8.57E+08	2.37E+08	2.92E+09
CCCCCCCCC(CCCCCC)C(=O)OCCCCCCCCOC(=O)NC(COC(=O)NCCN(C)C)C(=O)OCCCCCCCCOC(=O)C(CCCCCC)CCCCCCCC (stereo not drawn) [Lipid 883]	69.88	0.05	96.96	2.82E+05	93.23	1.59E+08	2.09E+07	1.60E+09	1860	220	16.4	5.01	6.37E+06	3.50E+07	3.22E+09	1.46E+08	2.19E+08	1.65E+09
CCCCCCCCC(CCCCCC)C(=O)OCCCCCCCCOC(=O)NC(COC(=O)NCCN1CCCCCC1)C(=O)OCCCCCCCCOC(=O)C(CCCCCC)CCCCCCCC (stereo not drawn) [Lipid 889]	61.64	0.02	95.41	2.46E+05	91.21	1.70E+08	8.56E+07	1.04E+09	760	286	7.62	4.69	3.47E+07	2.12E+08	5.79E+09	1.04E+09	2.95E+08	3.48E+09
